1 compound from patent publication US20260248963A1, “COMPOSITIONS FOR TREATING CANCER WITH KRAS MUTATIONS AND USES THEREOF” (AADIGEN, LLC, priority 2023, published 2026) can be followed below.

What all share (type): cell-based
Assay [1] has as its system MTRX-1133 resistant PANC-1 cells. The assay can be described thus: Cell growth inhibition assay, MTRX-1133 resistant PANC-1. The procedure:
(§1) To identify mutations or regulatory mechanisms that would confer acquired resistance to KRAS^G12D inhibitor MTRX1133, ASPC-1 and PANC-1 cells harboring KRAS G12D were exposed to increasing concentrations of MTRX-1133 (up to 20 μM). […] Clones resistant to KRAS^G12D inhibitor were generated during the course of the treatment.
(§2) ADGN-123 nanoparticle corresponds to gRNA35A5 sgRNA/Cas9 mRNA (1/1 molar ratio) associated with ADGN peptide (ADGN-106-Hydro3 peptide or ADGN-108-R9) at molar ratio 20/1 (peptide/nucleic acid). ADGN-123 nanoparticles were evaluated on the three stable MTRX-1133 resistant PANC-1 clones and two ASPC-1 clones. PANC-1-C1, PANC-1-C2, PANC-1-C3, ASPC-1-C1 and ASPC-1-C2. Cells were cultured in 96-well plate format and treated with free mRNACas9-gRNA, or ADGN-123 (ADGN/mRNACas9-gRNA) complex (from 0.1-10 μM) on day 1. Cell proliferation was analyzed over a period of 5 days using CellTiter Glow kits on GlowMax (Promega) and cytotoxicity was analyzed at 72 hr after treatment using CellTiter Glow or MTT assays kits.

Assay [2] has as its system MTRX-1133 resistant ASPC-1 cells. Description: Cell growth inhibition assay, MTRX-1133 resistant ASPC-1. The procedure:
as §1, §2

Assay [3] relates to parental ASPC-1 cells harboring KRAS G12D. Description: Growth suppression of parental ASPC-1 cells. The procedure: as §1
Assay [4] has as its system parental PANC-1 cells harboring KRAS G12D. Description: Growth suppression of parental PANC-1 cells. The procedure:
as §1

By IC50 is commonly meant the point on the concentration scale where inhibition reaches its midpoint. Lower therefore signals inhibition by little substance. For `C#Cc1c(F)ccc2cc(O)cc(-c3ncc4c(N5CC6CCC(C5)N6)nc(OC[C@@]56CCCN5C[C@H](F)C6)nc4c3F)c12` [MTRX-1133], the figures for the IC50 in assay [1] and in assay [2] were 4.75 ± 0.212 µM and 2.08 ± 0.203 µM, respectively. The “Lowest concentration that suppressed the growth of parental cells” value in assay [3] and in assay [4] was 100 nM in each case.
